Assay [1] deals with T1, STAT3 (Homo sapiens, UniProt P40763).
T1 construct: STAT3 protein (ab43618, Abcam)
As to the kind of experiment: fluorescence polarization competition with 5-carboxyfluorescein-GpYLPQTV-NH2; […], […], […] inhibition at […]. It counts as binding.

The target of assay [2] is T2, PDGFR-α (Homo sapiens, UniProt P16234).
T2 construct: gene PDGFRA; purified tyrosine kinase protein
The assay can be described thus: ELISA tyrosine kinase activity assay, single concentration. It counts as biochemical. The conditions noted are these: read-out: Inhibition Rate(%) / PDGFR-α.

The target in assay [3] is T3, Flt-1 (Homo sapiens, UniProt P17948).
T3 construct: gene FLT1; purified tyrosine kinase protein
T3 sequence (P17948 27-1338): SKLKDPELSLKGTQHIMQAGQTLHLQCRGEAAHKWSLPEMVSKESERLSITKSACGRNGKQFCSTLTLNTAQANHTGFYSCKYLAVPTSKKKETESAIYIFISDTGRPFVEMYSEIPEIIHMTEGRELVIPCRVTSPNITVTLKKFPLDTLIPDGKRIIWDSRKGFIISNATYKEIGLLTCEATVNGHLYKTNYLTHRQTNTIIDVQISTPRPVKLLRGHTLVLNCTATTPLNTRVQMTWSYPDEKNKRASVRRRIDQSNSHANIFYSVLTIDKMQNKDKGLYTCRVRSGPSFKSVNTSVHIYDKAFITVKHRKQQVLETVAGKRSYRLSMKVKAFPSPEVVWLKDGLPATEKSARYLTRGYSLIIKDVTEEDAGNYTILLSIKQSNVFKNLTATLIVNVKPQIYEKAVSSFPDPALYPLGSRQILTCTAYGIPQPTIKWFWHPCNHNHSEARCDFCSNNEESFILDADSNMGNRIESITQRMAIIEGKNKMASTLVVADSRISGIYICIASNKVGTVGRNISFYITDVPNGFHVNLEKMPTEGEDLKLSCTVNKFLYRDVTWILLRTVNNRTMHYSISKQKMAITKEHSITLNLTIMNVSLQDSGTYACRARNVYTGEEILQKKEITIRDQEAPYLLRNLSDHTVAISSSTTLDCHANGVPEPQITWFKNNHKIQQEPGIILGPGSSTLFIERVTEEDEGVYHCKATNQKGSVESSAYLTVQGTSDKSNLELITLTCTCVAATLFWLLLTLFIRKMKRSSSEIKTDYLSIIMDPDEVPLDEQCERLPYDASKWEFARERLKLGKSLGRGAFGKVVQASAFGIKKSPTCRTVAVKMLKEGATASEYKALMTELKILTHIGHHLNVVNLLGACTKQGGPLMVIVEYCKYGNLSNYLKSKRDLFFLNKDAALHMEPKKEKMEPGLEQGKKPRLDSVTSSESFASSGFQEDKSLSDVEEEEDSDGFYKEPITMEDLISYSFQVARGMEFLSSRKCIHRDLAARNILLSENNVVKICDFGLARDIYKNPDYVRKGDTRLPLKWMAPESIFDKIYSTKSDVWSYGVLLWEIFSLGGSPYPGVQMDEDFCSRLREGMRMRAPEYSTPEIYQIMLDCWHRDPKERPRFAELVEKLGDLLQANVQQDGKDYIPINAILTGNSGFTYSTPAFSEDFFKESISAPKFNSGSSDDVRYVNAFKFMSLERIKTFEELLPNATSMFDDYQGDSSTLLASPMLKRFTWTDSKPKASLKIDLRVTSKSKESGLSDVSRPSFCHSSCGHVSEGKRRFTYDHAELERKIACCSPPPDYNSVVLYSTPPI
Described as above. It counts as biochemical. Conditions: read-out: Inhibition Rate(%) / Flt-1.

For assay [4], the target named is T4, PDGFR-β (Homo sapiens, UniProt P09619).
T4 construct: gene PDGFRB; purified tyrosine kinase protein
T4 sequence (P09619 33-1106): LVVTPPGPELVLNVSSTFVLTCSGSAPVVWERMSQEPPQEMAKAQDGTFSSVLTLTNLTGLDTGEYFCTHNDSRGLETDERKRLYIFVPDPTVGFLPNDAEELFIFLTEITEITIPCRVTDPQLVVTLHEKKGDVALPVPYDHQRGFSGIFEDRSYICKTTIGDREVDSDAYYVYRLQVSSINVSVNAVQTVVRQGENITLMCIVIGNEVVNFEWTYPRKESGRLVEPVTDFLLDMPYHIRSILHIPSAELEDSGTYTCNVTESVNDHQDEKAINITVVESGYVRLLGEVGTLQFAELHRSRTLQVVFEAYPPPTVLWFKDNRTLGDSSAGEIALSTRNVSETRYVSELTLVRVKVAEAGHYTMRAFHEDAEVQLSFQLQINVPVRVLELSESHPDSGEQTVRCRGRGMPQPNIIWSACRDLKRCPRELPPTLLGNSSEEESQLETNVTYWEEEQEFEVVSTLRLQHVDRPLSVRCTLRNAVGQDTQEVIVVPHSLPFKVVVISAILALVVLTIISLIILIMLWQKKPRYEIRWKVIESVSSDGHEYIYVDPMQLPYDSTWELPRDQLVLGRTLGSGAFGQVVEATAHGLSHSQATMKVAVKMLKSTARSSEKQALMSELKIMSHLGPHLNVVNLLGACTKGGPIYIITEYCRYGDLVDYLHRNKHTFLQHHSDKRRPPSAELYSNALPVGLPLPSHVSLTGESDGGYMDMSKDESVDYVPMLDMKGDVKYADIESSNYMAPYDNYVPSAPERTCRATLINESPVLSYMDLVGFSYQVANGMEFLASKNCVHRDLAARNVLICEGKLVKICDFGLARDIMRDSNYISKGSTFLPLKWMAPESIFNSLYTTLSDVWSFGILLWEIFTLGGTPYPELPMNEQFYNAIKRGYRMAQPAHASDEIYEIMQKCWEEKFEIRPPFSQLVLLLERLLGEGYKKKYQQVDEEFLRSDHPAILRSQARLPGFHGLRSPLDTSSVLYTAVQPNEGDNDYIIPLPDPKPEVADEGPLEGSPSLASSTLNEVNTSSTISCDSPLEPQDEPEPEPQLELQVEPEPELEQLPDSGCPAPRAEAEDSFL
The assay is described as above. The conditions noted are these: read-out: Inhibition Rate(%) / PDGFR-β. It counts as biochemical.

Structures are written as SMILES.

The source of these data is paper PMC7287781 (Molecules, 2020).

T2 sequence (P16234 24-1089): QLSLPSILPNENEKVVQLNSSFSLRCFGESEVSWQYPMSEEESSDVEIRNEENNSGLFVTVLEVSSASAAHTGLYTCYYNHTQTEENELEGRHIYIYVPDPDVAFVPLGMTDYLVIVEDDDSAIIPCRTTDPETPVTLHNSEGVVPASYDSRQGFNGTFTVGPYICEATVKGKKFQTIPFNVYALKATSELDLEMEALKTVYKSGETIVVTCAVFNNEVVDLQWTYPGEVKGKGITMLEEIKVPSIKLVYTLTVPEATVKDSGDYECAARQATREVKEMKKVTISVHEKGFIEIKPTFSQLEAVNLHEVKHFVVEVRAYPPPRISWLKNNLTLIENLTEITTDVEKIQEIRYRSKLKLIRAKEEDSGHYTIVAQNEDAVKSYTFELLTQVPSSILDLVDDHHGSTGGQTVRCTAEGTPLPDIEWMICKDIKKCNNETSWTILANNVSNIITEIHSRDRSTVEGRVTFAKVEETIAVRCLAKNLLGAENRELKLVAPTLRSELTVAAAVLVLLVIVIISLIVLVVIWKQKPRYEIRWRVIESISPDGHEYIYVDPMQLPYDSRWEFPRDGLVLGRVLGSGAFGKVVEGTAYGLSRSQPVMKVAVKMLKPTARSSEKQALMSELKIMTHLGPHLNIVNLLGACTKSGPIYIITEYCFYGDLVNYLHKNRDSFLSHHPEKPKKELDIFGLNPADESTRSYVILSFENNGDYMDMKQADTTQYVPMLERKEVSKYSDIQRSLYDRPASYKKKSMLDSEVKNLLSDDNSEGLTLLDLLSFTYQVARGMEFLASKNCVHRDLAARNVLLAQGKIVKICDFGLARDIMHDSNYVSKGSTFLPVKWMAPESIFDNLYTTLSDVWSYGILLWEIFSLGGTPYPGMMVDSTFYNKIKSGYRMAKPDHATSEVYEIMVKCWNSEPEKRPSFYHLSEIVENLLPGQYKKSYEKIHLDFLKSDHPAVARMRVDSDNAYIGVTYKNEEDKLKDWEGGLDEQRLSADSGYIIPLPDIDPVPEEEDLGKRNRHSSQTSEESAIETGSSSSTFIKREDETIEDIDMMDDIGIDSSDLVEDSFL
T1 sequence (P40763 2-770): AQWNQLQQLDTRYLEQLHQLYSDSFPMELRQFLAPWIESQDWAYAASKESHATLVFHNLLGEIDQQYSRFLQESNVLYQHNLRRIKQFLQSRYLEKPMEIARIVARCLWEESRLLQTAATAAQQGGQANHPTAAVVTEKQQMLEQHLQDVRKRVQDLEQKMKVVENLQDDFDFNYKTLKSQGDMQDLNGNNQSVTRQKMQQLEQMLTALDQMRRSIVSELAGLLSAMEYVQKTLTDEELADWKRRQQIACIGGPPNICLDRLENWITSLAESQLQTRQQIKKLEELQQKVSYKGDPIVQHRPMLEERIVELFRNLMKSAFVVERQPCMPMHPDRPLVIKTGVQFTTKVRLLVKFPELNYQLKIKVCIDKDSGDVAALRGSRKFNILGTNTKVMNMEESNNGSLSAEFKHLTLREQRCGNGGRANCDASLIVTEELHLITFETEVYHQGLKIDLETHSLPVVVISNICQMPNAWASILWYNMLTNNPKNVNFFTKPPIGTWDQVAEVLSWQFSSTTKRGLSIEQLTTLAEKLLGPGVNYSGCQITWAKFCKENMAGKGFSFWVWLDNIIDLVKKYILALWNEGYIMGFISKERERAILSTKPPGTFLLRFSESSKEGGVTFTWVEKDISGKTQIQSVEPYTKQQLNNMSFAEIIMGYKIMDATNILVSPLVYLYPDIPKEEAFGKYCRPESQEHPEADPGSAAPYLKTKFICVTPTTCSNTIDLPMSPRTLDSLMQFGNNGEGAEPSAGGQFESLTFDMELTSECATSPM

In the case of `C/C=C\C(=O)O[C@@H]1C[C@H]2O[C@@H]3C=C(C)C(=O)C[C@]3(C)[C@]1(C)[C@]21CO1` [TCN, trichothecin], the “% inhibition at 2 μM” value in assay [1] is listed as 53.9.
In the case of `CCN(CC)CCNC(=O)c1c(C)[nH]c(/C=C2\C(=O)Nc3ccc(F)cc32)c1C` [Su11248], the inhibition at 1 µM stood at 68.4% in assay [2], 66.6% in assay [3] and 80.2% in assay [4].
